Assay results from patent US20250228239A1, “MOLECULES HAVING PESTICIDAL UTILITY, AND INTERMEDIATES, COMPOSITIONS, AND PROCESSES, RELATED THERETO” (priority 2024, published 2025).
Where two headings read alike, the source gives them in different places.

Assays:
[1] = test system: Cabbage Looper (Trichoplusia ni, TRIPNI); assay: Bioassays on Cabbage Looper (CL), 128-well diet tray assay; format: in vivo; details: Trichoplusia ni; for mortality at 50 µg/cm2: 168 h, second instar larvae, 50 μg/cm^2 of test molecule on artificial diet, 25° C., five to seven days, average of eight wells, read-out: CL % Control (or Mortality) rating
Protocol: (§1) Certain molecules disclosed in this document were tested against BAW and CL using procedures described in the following examples. In the reporting of the results, the “BAW & CL Rating Table” was used (See Table Section).
Bioassays on CL were conducted using a 128-well diet tray assay. One to five second instar CL larvae were placed in each well (3 mL) of the diet tray that had been previously filled with 1 mL of artificial diet to which 50 μg/cm^2 of the test molecule (dissolved in 50 μL of 90:10 acetone-water mixture) had been applied (to each of eight wells) and then allowed to dry. Trays were covered with a clear self-adhesive cover, vented to allow gas exchange, and held at 25° C., 14:10 light-dark for five to seven days. Percent mortality was recorded for the larvae in each well; activity in the eight wells was then averaged. The results are indicated in the table entitled “Table ABC: Biological Results” (See Table Section).

[2] = test system: Beet Armyworm (Spodoptera exigua, LAPHEG); assay: Bioassays on Beet Armyworm (BAW), 128-well diet tray assay; format: in vivo; details: Spodoptera exigua; for mortality at 50 µg/cm2: 168 h, second instar larvae, 50 μg/cm^2 of test molecule on artificial diet, 25° C., five to seven days, average of eight wells, read-out: BAW % Control (or Mortality) rating
Protocol: as §1
Bioassays on BAW were conducted using a 128-well diet tray assay. One to five second instar BAW larvae were placed in each well (3 mL) of the diet tray that had been previously filled with 1 mL of artificial diet to which 50 μg/cm^2 of the test molecule (dissolved in 50 μL of 90:10 acetone-water mixture) had been applied (to each of eight wells) and then allowed to dry. Trays were covered with a clear self-adhesive cover, vented to allow gas exchange, and held at 25° C., 14:10 light-dark for five to seven days. Percent mortality was recorded for the larvae in each well; activity in the eight wells was then averaged. The results are indicated in the table entitled “Table ABC: Biological Results” (See Table Section).

[3] = Cabbage Looper, Table ABC / ABC-DP rating, read-out: CL rating
[4] = Beet Armyworm, Table ABC / ABC-DP rating, read-out: BAW rating
[5] = Table ABC: Biological Results, species CL, read-out: CL
[6] = Table ABC: Biological Results, species BAW, read-out: BAW

| Structure (SMILES) | pest or weed control at 50 µg/cm2 [1, 5] [%] | pest or weed control at 50 µg/cm2 [2, 6] [%] | also measured |
| --- | --- | --- | --- |
| Nc1c(F)cc(NC(=O)c2cc(NC(=O)[C@H]3[C@H](c4ccc(Cl)c(Cl)c4)C3(Cl)Cl)ccc2Cl)cc1F (relative stereo) [DP3, trans-N-(4-Amino-3,5-difluorophenyl)-2-chloro-5-(2,2-dichloro-3-(3,4-dichlorophenyl)cyclopropane-1-carboxamido)benzamide] | – | – | mortality at 50 µg/cm2 [1]: 50 to 100%; pest or weed control at 50 µg/cm2 [1, 3]: 50 to 100%; mortality at 50 µg/cm2 [2]: 50 to 100%; pest or weed control at 50 µg/cm2 [2, 4]: 50 to 100% |
| Nc1cc(F)ccc1NC(=O)c1cc(NC(=O)[C@H]2[C@H](c3ccc(Cl)c(Cl)c3)C2(Cl)Cl)ccc1Cl (relative stereo) [DP6, trans-N-(2-amino-4-fluorophenyl)-2-chloro-5-(2,2-dichloro-3-(3,4-dichlorophenyl)cyclopropane-1-carboxamido)benzamide] | – | – | mortality at 50 µg/cm2 [1]: 50 to 100%; pest or weed control at 50 µg/cm2 [1, 3]: 50 to 100%; mortality at 50 µg/cm2 [2]: 50 to 100%; pest or weed control at 50 µg/cm2 [2, 4]: 50 to 100% |
| Nc1c(F)c(F)c(F)c(NC(=O)c2cc(NC(=O)[C@H]3[C@H](c4cc(Cl)cc(Cl)c4)C3(Cl)Cl)ccc2Cl)c1F (relative stereo) [F1022, trans-N-(3-Amino-2,4,5,6-tetrafluorophenyl)-2-chloro-5-(2,2-dichloro-3-(3,5-dichlorophenyl)cyclopropane-1-carboxamido)benzamide] | 50 to 100 | 50 to 100 | – |
| Nc1c(F)ccc(NC(=O)c2cc(NC(=O)[C@H]3[C@H](c4ccc(F)c(C(F)F)c4)C3(Cl)Cl)ccc2Cl)c1F (relative stereo) [F1036, trans-N-(3-Amino-2,4-difluorophenyl)-2-chloro-5-(2,2-dichloro-3-(3-(difluoromethyl)-4-fluorophenyl)cyclopropane-1-carboxamido)benzamide] | 50 to 100 | 50 to 100 | – |
| Cc1ccc(CNc2ccc(NC(=O)c3cc(NC(=O)[C@H]4[C@H](c5cc(Cl)cc(Cl)c5)C4(Cl)Cl)ccc3Cl)c(C)c2)cc1 (relative stereo) [F1041, trans-2-Chloro-5-(2,2-dichloro-3-(3,5-dichlorophenyl)cyclopropane-1-carboxamido)-N-(2-methyl-4-((4-methylbenzyl)amino)phenyl)benzamide] | 50 to 100 | 50 to 100 | – |
| C=CCN(C(=O)c1cc(NC(=O)[C@H]2[C@H](c3cc(Cl)cc(Cl)c3)C2(Cl)Cl)ccc1Cl)c1ccc(F)cc1C#N (relative stereo) [F1055, trans-N-Allyl-2-chloro-N-(2-cyano-4-fluorophenyl)-5-(2,2-dichloro-3-(3,5-dichlorophenyl)cyclopropane-1-carboxamido)benzamide] | 50 to 100 | 50 to 100 | – |
| Cc1cc(NC(=O)C(Cl)(Cl)Cl)ccc1NC(=O)c1cc(NC(=O)[C@H]2[C@H](c3ccc(Cl)c(Cl)c3)C2(Cl)Cl)ccc1Cl (relative stereo) [F1060, trans-2-Chloro-5-(2,2-dichloro-3-(3,4-dichlorophenyl)cyclopropane-1-carboxamido)-N-(2-methyl-4-(2,2,2-trichloroacetamido)phenyl)benzamide] | 50 to 100 | 50 to 100 | – |
| Cc1cc([C@H]2[C@H](C(=O)Nc3ccc(Cl)c(C(=O)Nc4ccc(F)c(N)c4F)c3)C2(Cl)Cl)cc(C(F)(F)F)c1F (relative stereo) [F1068, trans-N-(3-Amino-2,4-difluorophenyl)-2-chloro-5-(2,2-dichloro-3-(4-fluoro-3-methyl-5-(trifluoromethyl)phenyl)cyclopropane-1-carboxamido)benzamide] | 50 to 100 | 50 to 100 | – |
| CC(C)(C)OC(=O)N(C(=O)OC(C)(C)C)c1c(F)ccc(NC(=O)c2c(Cl)ccc(NC(=O)[C@H]3[C@H](c4ccc(F)c(Cl)c4)C3(Cl)Cl)c2Cl)c1F (relative stereo) [F1107, trans-tert-Butyl-N-tert-butoxycarbonyl-N-[3-[[2,6-dichloro-3-[[2,2-dichloro-3-(3-chloro-4-fluorophenyl)cyclopropanecarbonyl]amino]benzoyl]amino]-2,6-difluoro-phenyl]carbamate] | 0 to 50 | – | – |
| CC(=O)OCCN(C(=O)OC(C)(C)C)c1ccc(NC(=O)c2cc(NC(=O)[C@H]3[C@H](c4cc(Cl)cc(Cl)c4)C3(Cl)Cl)ccc2Cl)c(C)c1 (relative stereo) [F1129, trans-2-((tert-butoxycarbonyl)(4-(2-chloro-5-(2,2-dichloro-3-(3,5-dichlorophenyl)cyclopropane-1-carboxamido)benzamido)-3-methylphenyl)amino)ethyl acetate] | 50 to 100 | – | – |
| Cc1cc(NC(=O)[C@H]2[C@H](c3ccc(F)c(Cl)c3)C2(Cl)Cl)cc(C(=O)Nc2ccc(F)c(N(C(=O)OC(C)(C)C)C(=O)OC(C)(C)C)c2F)c1F (relative stereo) [F1138, trans-tert-Butyl-N-tert-butoxycarbonyl-N-[3-[[5-[[2,2-dichloro-3-(3-chloro-4-fluorophenyl)cyclopropanecarbonyl]amino]-2-fluoro-3-methylbenzoyl]amino]-2,6-difluorophenyl]carbamate] | – | 0 to 50 | – |
| CC(C)(C)OC(=O)N(C(=O)OC(C)(C)C)c1c(F)ccc(NC(=O)c2cc(NC(=O)[C@H]3[C@H](c4ccc(F)c(Cl)c4)C3(Cl)Cl)cc(F)c2Cl)c1F (relative stereo) [F1155, trans-tert-Butyl-N-tert-butoxycarbonyl-N-[3-[[2-chloro-5-[[2,2-dichloro-3-(3-chloro-4-fluorophenyl)cyclopropanecarbonyl]amino]-3-fluorobenzoyl]amino]-2,6-difluorophenyl]carbamate] | – | 50 to 100 | – |
| CC(=O)Oc1c(F)ccc(NC(=O)c2cc(NC(=O)[C@H]3[C@H](c4cc(Cl)cc(Cl)c4)C3(Cl)Cl)ccc2Cl)c1F (relative stereo) [F1193, trans-3-(2-Chloro-5-(2,2-dichloro-3-(3,5-dichlorophenyl)cyclopropane-1-carboxamido)benzamido)-2,6-difluorophenyl acetate] | 50 to 100 | – | – |
| CC(C)(C)OC(=O)N(C(=O)OC(C)(C)C)c1c(F)ccc(NC(=O)c2cc(NC(=O)[C@H]3[C@H](c4ccc(F)c(Cl)c4)C3(Cl)Cl)cc(Cl)c2F)c1F (relative stereo) [F1198, trans-tert-Butyl-N-tert-butoxycarbonyl-N-[3-[[3-chloro-5-[[2,2-dichloro-3-(3-chloro-4-fluorophenyl)cyclopropanecarbonyl]amino]-2-fluorobenzoyl]amino]-2,6-difluorophenyl]carbamate] | 0 to 50 | – | – |
| COc1c(F)cc(NC(=O)[C@H]2[C@H](c3ccc(F)c(Cl)c3)C2(Cl)Cl)cc1C(=O)Nc1ccccc1 (relative stereo) [F1213, trans-5-(2,2-Dichloro-3-(3-chloro-4-fluorophenyl)cyclopropane-1-carboxamido)-3-fluoro-2-methoxy-N-phenylbenzamide] | 50 to 100 | – | – |
| COc1c(Cl)cc(NC(=O)[C@H]2[C@H](c3ccc(F)c(Cl)c3)C2(Cl)Cl)cc1C(=O)Nc1ccc(F)c(N(C(=O)OC(C)(C)C)C(=O)OC(C)(C)C)c1F (relative stereo) [F1237, trans-tert-Butyl-N-tert-butoxycarbonyl-N-[3-[[3-chloro-5-[[2,2-dichloro-3-(3-chloro-4-fluorophenyl)cyclopropanecarbonyl]amino]-2-methoxybenzoyl]amino]-2,6-difluorophenyl]carbamate] | – | 0 to 50 | – |
| O=C(Nc1cc(Cl)c(O)c(Cl)c1)c1cc(NC(=O)[C@H]2[C@H](c3cc(Cl)cc(Cl)c3)C2(Cl)Cl)ccc1Cl (relative stereo) [F1360, trans-2-Chloro-5-(2,2-dichloro-3-(3,5-dichlorophenyl)cyclopropane-1-carboxamido)-N-(3,5-dichloro-4-hydroxyphenyl)benzamide] | 50 to 100 | – | – |
| CCOC(=O)C(F)(F)CNC(=O)c1cc(NC(=O)[C@H]2[C@H](c3cc(Cl)cc(Cl)c3)C2(Cl)Cl)ccc1Cl (relative stereo) [F2076, trans-Ethyl 3-(2-chloro-5-(2,2-dichloro-3-(3,5-dichlorophenyl)cyclopropane-1-carboxamido)benzamido)-2,2-difluoropropanoate] | – | – | pest or weed control at 50 µg/cm2 [1, 3]: 50 to 100% |
| Cc1c(F)c(NC(=O)c2cc(NC(=O)[C@H]3[C@H](c4ccc(F)c(C(F)(F)F)c4)C3(Cl)Cl)ccc2Cl)cc(N(C(=O)OC(C)(C)C)C(=O)OC(C)(C)C)c1F [F1670, tert-Butyl N-tert-butoxycarbonyl-N-[5-[[2-chloro-5-[[(1R,3R)-2,2-dichloro-3-[4-fluoro-3-(trifluoromethyl)phenyl]cyclopropanecarbonyl]amino]benzoyl]amino]-2,4-difluoro-3-methyl-phenyl]carbamate] | – | – | pest or weed control at 50 µg/cm2 ([2]; Beet Armyworm, rating class, read-out: BAW): 0 to 50% |
